Data as given in patent US20230150974A1 (Foghorn Therapeutics Inc., priority 2020, published 2023).

Key:
HiBit-BRG1 = target: T1, HiBit-BRG1 (Homo sapiens, UniProt P51532); test: HiBit-BRG1 cell-based degradation assay (Nano-Glo HiBiT Lytic Detection); details: HeLa cells expressing HiBit-BRG1 and LgBit, 24 h; for DC50: read-out: BRG1 HiBit Degradation IC50; for Dmax: read-out: BRG1 HiBit Degradation Maximum (%)
T1 construct: expressed in transfected cells
Method in brief: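 HeLa cells stably expressing HiBiT-BRG1 plus LgBit, 5000/well, treated 24 h, then lysed with Nano-Glo HiBiT lytic reagent and luminescence read. % degradation normalised between DMSO (high control) and 2 μM reference BRM/BRG1 degrader (low control).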

HiBiT-BRM = target: T2, HiBiT-BRM (Homo sapiens, UniProt P51531); test: HiBiT-BRM cell-based degradation assay (Nano-Glo HiBiT Lytic Detection); details: HeLa cells expressing HiBiT-BRM, 24 h; for DC50: read-out: BRM HiBit Degradation IC50
T2 construct: expressed in transfected cells
Method in brief: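 HeLa cells stably expressing HiBiT-tagged BRM were treated for 24 h, then lysed with LgBiT-containing Nano-Glo reagent and luminescence read. % degradation scaled between DMSO (high control) and 2 μM reference BRM/BRG1 degrader (low control).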

T1 sequence (P51532 whole entry): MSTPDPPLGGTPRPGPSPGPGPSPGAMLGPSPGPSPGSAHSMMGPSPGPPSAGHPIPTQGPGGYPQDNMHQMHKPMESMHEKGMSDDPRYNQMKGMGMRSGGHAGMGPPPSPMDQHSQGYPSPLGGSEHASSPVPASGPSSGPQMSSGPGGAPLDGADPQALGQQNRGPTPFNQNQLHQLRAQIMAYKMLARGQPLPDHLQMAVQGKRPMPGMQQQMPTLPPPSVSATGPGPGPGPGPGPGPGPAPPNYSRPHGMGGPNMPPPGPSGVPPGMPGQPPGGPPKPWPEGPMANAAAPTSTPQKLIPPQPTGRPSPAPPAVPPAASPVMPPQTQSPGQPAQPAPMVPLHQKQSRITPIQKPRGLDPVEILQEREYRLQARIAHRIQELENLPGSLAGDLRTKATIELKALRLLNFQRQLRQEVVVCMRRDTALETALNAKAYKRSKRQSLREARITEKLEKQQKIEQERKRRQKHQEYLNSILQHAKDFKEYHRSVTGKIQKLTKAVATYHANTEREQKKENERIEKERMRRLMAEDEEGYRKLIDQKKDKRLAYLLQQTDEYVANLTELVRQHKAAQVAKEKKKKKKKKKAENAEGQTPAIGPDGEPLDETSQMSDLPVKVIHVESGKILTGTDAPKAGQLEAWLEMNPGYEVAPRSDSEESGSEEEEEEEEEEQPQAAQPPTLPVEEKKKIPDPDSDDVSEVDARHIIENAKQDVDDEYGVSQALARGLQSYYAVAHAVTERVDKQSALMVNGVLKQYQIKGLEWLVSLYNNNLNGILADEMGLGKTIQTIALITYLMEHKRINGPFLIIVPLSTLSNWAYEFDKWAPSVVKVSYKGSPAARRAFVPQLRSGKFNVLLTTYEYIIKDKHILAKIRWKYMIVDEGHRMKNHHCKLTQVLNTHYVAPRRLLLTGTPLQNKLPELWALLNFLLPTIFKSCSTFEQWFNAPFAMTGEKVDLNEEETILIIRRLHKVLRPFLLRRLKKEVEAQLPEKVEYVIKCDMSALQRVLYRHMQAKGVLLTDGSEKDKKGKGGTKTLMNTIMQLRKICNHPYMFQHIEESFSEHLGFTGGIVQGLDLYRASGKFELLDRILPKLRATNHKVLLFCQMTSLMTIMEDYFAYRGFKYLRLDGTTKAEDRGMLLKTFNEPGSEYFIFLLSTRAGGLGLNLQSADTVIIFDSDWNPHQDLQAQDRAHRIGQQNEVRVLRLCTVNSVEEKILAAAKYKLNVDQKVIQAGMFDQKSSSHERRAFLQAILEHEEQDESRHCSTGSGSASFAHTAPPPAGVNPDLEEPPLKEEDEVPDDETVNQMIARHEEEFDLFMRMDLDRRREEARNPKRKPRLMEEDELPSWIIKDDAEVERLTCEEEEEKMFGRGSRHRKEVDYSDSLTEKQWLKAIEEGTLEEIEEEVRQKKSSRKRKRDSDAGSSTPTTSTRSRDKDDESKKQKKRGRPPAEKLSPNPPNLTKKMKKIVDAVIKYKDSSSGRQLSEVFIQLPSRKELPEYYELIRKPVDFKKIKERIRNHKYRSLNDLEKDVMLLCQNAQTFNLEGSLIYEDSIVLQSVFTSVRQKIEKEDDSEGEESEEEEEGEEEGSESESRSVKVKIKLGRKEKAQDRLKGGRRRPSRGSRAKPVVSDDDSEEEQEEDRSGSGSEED
T2 sequence (P51531 whole entry): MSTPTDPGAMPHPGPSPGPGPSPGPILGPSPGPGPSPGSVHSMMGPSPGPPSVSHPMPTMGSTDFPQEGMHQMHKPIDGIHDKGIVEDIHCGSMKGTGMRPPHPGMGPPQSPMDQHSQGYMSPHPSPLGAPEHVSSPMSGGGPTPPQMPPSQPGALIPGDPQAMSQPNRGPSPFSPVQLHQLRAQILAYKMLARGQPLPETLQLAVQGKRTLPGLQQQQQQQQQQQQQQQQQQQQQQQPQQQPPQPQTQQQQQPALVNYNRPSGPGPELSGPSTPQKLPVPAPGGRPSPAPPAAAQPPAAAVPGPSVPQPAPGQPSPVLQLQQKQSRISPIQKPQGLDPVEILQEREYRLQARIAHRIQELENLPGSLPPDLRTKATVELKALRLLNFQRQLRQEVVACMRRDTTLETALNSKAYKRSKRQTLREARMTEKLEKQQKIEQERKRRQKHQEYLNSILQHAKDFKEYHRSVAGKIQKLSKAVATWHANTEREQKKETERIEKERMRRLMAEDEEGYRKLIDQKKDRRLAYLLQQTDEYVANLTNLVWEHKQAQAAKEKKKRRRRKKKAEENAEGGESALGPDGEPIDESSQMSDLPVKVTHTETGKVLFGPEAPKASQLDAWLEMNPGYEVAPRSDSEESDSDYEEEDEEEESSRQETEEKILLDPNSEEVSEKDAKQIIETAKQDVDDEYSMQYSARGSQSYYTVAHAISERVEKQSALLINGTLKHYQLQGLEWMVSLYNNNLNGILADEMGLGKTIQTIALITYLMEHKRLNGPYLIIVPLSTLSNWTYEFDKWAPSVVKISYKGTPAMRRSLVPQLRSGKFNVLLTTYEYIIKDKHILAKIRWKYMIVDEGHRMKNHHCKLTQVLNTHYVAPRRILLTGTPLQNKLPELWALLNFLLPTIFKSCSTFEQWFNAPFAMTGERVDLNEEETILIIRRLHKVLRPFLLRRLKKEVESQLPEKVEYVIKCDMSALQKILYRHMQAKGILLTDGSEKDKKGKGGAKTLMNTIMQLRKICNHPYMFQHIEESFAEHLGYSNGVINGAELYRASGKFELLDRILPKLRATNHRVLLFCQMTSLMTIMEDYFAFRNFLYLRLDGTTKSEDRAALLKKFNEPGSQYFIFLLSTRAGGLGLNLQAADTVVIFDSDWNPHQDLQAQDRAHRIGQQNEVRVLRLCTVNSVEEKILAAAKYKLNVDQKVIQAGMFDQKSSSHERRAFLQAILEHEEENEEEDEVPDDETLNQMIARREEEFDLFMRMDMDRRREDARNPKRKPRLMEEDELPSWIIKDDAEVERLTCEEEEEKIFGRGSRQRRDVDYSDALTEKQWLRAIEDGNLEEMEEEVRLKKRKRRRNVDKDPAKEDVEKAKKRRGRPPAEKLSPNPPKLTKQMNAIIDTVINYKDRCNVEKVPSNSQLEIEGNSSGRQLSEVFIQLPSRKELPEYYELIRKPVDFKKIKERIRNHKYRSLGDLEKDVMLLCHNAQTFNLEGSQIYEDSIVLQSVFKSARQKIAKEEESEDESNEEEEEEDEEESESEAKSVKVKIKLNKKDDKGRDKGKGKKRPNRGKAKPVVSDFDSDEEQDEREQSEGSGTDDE

Structure (SMILES) | DC50 (HiBit-BRG1) [µM] | Dmax (HiBit-BRG1) [%] | BRM HiBit Degradation Maximum (%) (HiBiT-BRM) | DC50 (HiBiT-BRM) [µM]
Cc1ncsc1-c1ccc([C@H](C)NC(=O)[C@@H]2C[C@@H](O)CN2C(=O)[C@@H](c2cc(OCCN3CC4CN(C(=O)c5ccc(CCOc6cc(-c7ccccc7O)nnc6N)cc5)CC43)no2)C(C)C)cc1 (stereo partly drawn) [Compound 225, (2S,4R)-1-((2R)-2-(3-(2-(3-(4-(2-((3-amino-6-(2-hydroxyphenyl)pyridazin-4-yl)oxy)ethyl)benzoyl)-3,6-diazabicyclo[3.2.0]heptan-6-yl)ethoxy)isoxazol-5-yl)-3-methylbutanoyl)-4-hydroxy-N-((S)-1-(4-(4-methylthiazol-5-yl)phenyl)ethyl)pyrrolidine-2-carboxamide] | > 0.1 | > 75 | A (“A” indicates maximum degradation ≥75%) | > 0.1
Cc1nc2cccc(NCCCCCCCCNC(=O)c3ccc(CCOc4cc(-c5ccccc5O)nnc4N)cc3)c2c(=O)n1C1CCC(=O)NC1=O (stereo not shown) [Compound 45, 4-(2-[[3-amino-6-(2-hydroxyphenyl)pyridazin-4-yl]oxy]ethyl)-N-(8-[[3-(2,6-dioxopiperidin-3-yl)-2-methyl-4-oxoquinazolin-5-yl]amino]octyl)benzamide] | > 1 | < 50 | C (“C” indicates maximum degradation <50%) | > 1
Nc1nnc(-c2ccccc2O)cc1OCCc1ccc(C(=O)NCCCCCCCCCCC(=O)NCc2ccc(S(=O)(=O)Nc3cccc4c(Cl)c[nH]c34)cc2)cc1 [Compound 11, 11-[[4-(2-[[3-amino-6-(2-hydroxyphenyl)pyridazin-4-yl]oxy]ethyl)phenyl]formamido]-N-([4-[(3-chloro-1H-indol-7-yl)sulfamoyl]phenyl]methyl)undecanamide] | > 1 | < 50 | C (“C” indicates maximum degradation <50%) | > 1
Cc1ncsc1-c1ccc([C@H](C)NC(=O)[C@@H]2C[C@@H](O)CN2C(=O)[C@@H](NC(=O)CN2CCC(OC3CCN(CCC(=O)NCc4ccc(CCOc5cc(-c6ccccc6O)nnc5N)cc4)CC3)CC2)C(C)(C)C)cc1 [Compound 258, (2S,4R)-1-((S)-2-(2-(4-((1-(3-((4-(2-((3-amino-6-(2-hydroxyphenyl)pyridazin-4-yl)oxy)ethyl)benzyl)amino)-3-oxopropyl)piperidin-4-yl)oxy)piperidin-1-yl)acetamido)-3,3-dimethylbutanoyl)-4-hydroxy-N-((S)-1-(4-(4-methylthiazol-5-yl)phenyl)ethyl)pyrrolidine-2-carboxamide] | > 1 | > 50 | A (“A” indicates maximum degradation ≥75%) | > 0.1
Nc1nnc(-c2ccccc2O)cc1OCCc1ccc(CNC(=O)CCNc2cccc3nnn(C4CCC(=O)NC4=O)c(=O)c23)cc1 (stereo not shown) [Compound 111, N-(4-(2-((3-amino-6-(2-hydroxyphenyl)pyridazin-4-yl)oxy)ethyl)benzyl)-3-((3-(2,6-dioxopiperidin-3-yl)-4-oxo-3,4-dihydrobenzo[d][1,2,3]triazin-5-yl)amino)propanamide] | > 1 | < 50 | C (“C” indicates maximum degradation <50%) | > 1
Cc1ncsc1-c1ccc(CNC(=O)[C@@H]2C[C@@H](O)CN2C(=O)[C@@H](NC(=O)CN2CCN(CCOc3cc(N4[C@@H]5CC[C@H]4CN(c4cc(-c6ccccc6O)nnc4N)C5)ccn3)CC2)C(C)(C)C)cc1 [Compound 233, (2S,4R)-1-((2S)-2-(2-(4-(2-((4-(3-(3-amino-6-(2-hydroxyphenyl)pyridazin-4-yl)-3,8-diazabicyclo[3.2.1]octan-8-yl)pyridin-2-yl)oxy)ethyl)piperazin-1-yl)acetamido)-3,3-dimethylbutanoyl)-4-hydroxy-N-(4-(4-methylthiazol-5-yl)benzyl)pyrrolidine-2-carboxamide] | > 0.1 | > 75 | A (“A” indicates maximum degradation ≥75%) | > 0.01
Nc1nnc(-c2ccccc2O)cc1OCCc1ccc(C(=O)NCCCCCCCCNC(=O)COc2cccc3c2C(=O)N(C2CCC(=O)NC2=O)C3=O)cc1 (stereo not shown) [Compound 41, N-(8-[[4-(2-[[3-amino-6-(2-hydroxyphenyl)pyridazin-4-yl]oxy]ethyl)phenyl]formamido]octyl)-2-[[2-(2,6-dioxopiperidin-3-yl)-1,3-dioxoisoindol-4-yl]oxy]acetamide] | > 1 | < 50 | C (“C” indicates maximum degradation <50%) | > 1
Cc1ncsc1-c1ccc([C@H](C)NC(=O)[C@@H]2C[C@@H](O)CN2C(=O)[C@@H](c2cc(OCCN3CC(C4CCN(C(=O)c5ccc(CCOc6cc(-c7ccccc7O)nnc6N)cc5)CC4)C3)no2)C(C)C)cc1 [Compound 211, (2S,4R)-1-[(2R)-2-[3-[2-(3-[1-[4-(2-[[3-amino-6-(2-hydroxyphenyl)pyridazin-4-yl]oxy]ethyl)benzoyl]piperidin-4-yl]azetidin-1-yl)ethoxy]-1,2-oxazol-5-yl]-3-methylbutanoyl]-4-hydroxy-N-[(1S)-1-[4-(4-methyl-1,3-thiazol-5-yl)phenyl]ethyl]pyrrolidine-2-carboxamide] | > 1 | > 50 | A (“A” indicates maximum degradation ≥75%) | > 0.01
Cc1ncsc1-c1ccc([C@H](C)NC(=O)[C@@H]2C[C@@H](O)CN2C(=O)[C@@H](NC(=O)CCCCN2CCN(CCC(=O)NCc3ccc(CCOc4cc(-c5ccccc5O)nnc4N)cc3)CC2)C(C)(C)C)cc1 [Compound 262, (2S,4R)-1-((S)-2-(5-(4-(3-((4-(2-((3-amino-6-(2-hydroxyphenyl)pyridazin-4-yl)oxy)ethyl)benzyl)amino)-3-oxopropyl)piperazin-1-yl)pentanamido)-3,3-dimethylbutanoyl)-4-hydroxy-N-((S)-1-(4-(4-methylthiazol-5-yl)phenyl)ethyl)pyrrolidine-2-carboxamide] | > 1 | < 50 | B (“B” indicates maximum degradation ≥50%) | > 1
Cc1ncsc1-c1ccc([C@H](C)NC(=O)[C@@H]2C[C@@H](O)CN2C(=O)[C@@H](c2cc(OCCN3C[C@@H]4CN(C(=O)c5ccc(CCOc6cc(-c7ccccc7O)nnc6N)cc5)C[C@@H]4C3)no2)C(C)C)cc1 [Compound 190, (2S,4R)-1-((2R)-2-(3-(2-(5-(4-(2-((3-amino-6-(2-hydroxyphenyl)pyridazin-4-yl)oxy)ethyl)benzoyl)hexahydropyrrolo[3,4-c]pyrrol-2(1H)-yl)ethoxy)isoxazol-5-yl)-3-methylbutanoyl)-4-hydroxy-N-((S)-1-(4-(4-methylthiazol-5-yl)phenyl)ethyl)pyrrolidine-2-carboxamide] | > 0.1 | > 75 | A (“A” indicates maximum degradation ≥75%) | > 0.01
Cc1ncsc1-c1ccc([C@H](C)NC(=O)[C@@H]2C[C@@H](O)CN2C(=O)[C@@H](c2cc(OCCN3CC4(C3)CN(CCC(=O)NCc3ccc(CCOc5cc(-c6ccccc6O)nnc5N)cc3)C4)no2)C(C)C)cc1 [Compound 192, (2S,4R)-1-[(2R)-2-[3-(2-[6-[2-([[4-(2-[[3-amino-6-(2-hydroxyphenyl)pyridazin-4-yl]oxy]ethyl)phenyl]methyl]carbamoyl)ethyl]-2,6-diazaspiro[3.3]heptan-2-yl]ethoxy)-1,2-oxazol-5-yl]-3-methylbutanoyl]-4-hydroxy-N-[(1S)-1-[4-(4-methyl-1,3-thiazol-5-yl)phenyl]ethyl]pyrrolidine-2-carboxamide] | > 1 | > 50 | A (“A” indicates maximum degradation ≥75%) | > 0.1
Cc1ncsc1-c1ccc(CNC(=O)[C@@H]2C[C@@H](O)CN2C(=O)[C@@H](NC(=O)CCN2C[C@@H]3CN(C(=O)c4ccc(CCOc5cc(-c6ccccc6O)nnc5N)cc4)C[C@@H]3C2)C(C)(C)C)cc1 [Compound 203, (2S,4R)-1-((2S)-2-(3-(5-(4-(2-((3-amino-6-(2-hydroxyphenyl)pyridazin-4-yl)oxy)ethyl)benzoyl)hexahydropyrrolo[3,4-c]pyrrol-2(1H)-yl)propanamido)-3,3-dimethylbutanoyl)-4-hydroxy-N-(4-(4-methylthiazol-5-yl)benzyl)pyrrolidine-2-carboxamide] | > 1 | < 50 | B (“B” indicates maximum degradation ≥50%) | > 1
Cc1ncsc1-c1ccc([C@H](C)NC(=O)[C@@H]2C[C@@H](O)CN2C(=O)[C@@H](c2cc(OCCN3CC4CN(C(=O)c5ccc(CCOc6cc(-c7ccccc7O)nnc6N)cc5)C4C3)no2)C(C)C)cc1 (stereo partly drawn) [Compound 240, (2S,4R)-1-((2R)-2-(3-(2-(6-(4-(2-((3-amino-6-(2-hydroxyphenyl)pyridazin-4-yl)oxy)ethyl)benzoyl)-3,6-diazabicyclo[3.2.0]heptan-3-yl)ethoxy)isoxazol-5-yl)-3-methylbutanoyl)-4-hydroxy-N-((S)-1-(4-(4-methylthiazol-5-yl)phenyl)ethyl)pyrrolidine-2-carboxamide] | > 0.1 | > 75 | A (“A” indicates maximum degradation ≥75%) | > 0.1
